# Test results as given in patent publication US11691992B2 (Anacor Pharmaceuticals, Inc., priority 2017, dated 2023).
# System: STIB719/ILRAD560 T. vivax (drug sensitive) strain
# Test: Ex vivo Alamar Blue 48 h drug sensitivity assay for T. vivax
# Format: cell-based
# Conditions: Trypanosoma vivax, ex vivo bloodstream forms from mouse, 45 hrs + 3 hrs resazurin, read-out: IC50: I Hypoxanthine Incorporation T. vivax STIB 719/ILRA D 560, 2 d
# Protocol: Example 109. Ex Vivo Alamar Blue 48 h Drug Sensitivity Assay for T. vivax
# […] Test compounds were prepared as 10 mg/mL DMSO stocks for each assay run. Compounds were assayed in at least three separate, independent test runs and an 11-point dilution curve was used to determine the IC50 values. Bloodstream form trypanosomes were propagated and harvested from a highly parasitemic mouse (via cardiac puncture) and were incubated with test compounds for 45 hrs at 37° C. in a humidified atmosphere containing 5% CO2, supported in HMI media containing 20% bovine serum. […] Plates were then read using a fluorescent plate reader (Spectramax, Gemini XS, Bucher Biotec, Basel, Switzerland) using an excitation wavelength of 536 nm and an emission wavelength of 588 nm. Data points were averaged to generate sigmoidal dose-response curves and IC50 values were determined using Softmax Pro 5.2 software.
structure (smiles),measurement,value
"O=C(Nc1ccc2c(c1)B(O)OC2)c1cn(-c2ccc(F)cc2)nn1 [Example 60, 1-(4-Fluorophenyl)-N-(1-hydroxy-1,3-dihydrobenzo[c][1,2]oxaborol-6-yl)-1H-1,2,3-triazole-4-carboxamide]",IC50,201 to 500 nM
